# Measurements reported in patent US6770664B2, “Bicyclic heterocyclic substituted phenyl oxazolidinone antibacterials, and related compositions and methods” (priority 1999, dated 2004).
row,melting point,Structure (SMILES)
1,265 to 270 °C (dec.),CC(=O)NC[C@H]1CN(c2ccc(N3Cc4cnc(-c5cccnc5)nc4C3)c(F)c2)C(=O)O1 [Compound 43]
2,240 to 242 °C,"CC(=O)NC[C@H]1CN(c2ccc(N3Cc4ccccc4C3)c(F)c2)C(=O)O1 [Compound 1, N-[[(5S)-3-[4-(1,3-Dihydro-2H-isoindol-2-yl)-3-fluorophenyl]-2-oxo-5-oxazolidinyl]methyl]acetamide]"
3,244 to 247 °C (dec.),CC(=O)NC[C@H]1CN(c2ccc(N3Cc4c[nH]nc4C3)c(F)c2)C(=O)O1 [Compound 44]
4,232 to 242 °C (dec.),"CC(=O)NC[C@H]1CN(c2ccc(N3Cc4cn(CCO)nc4C3)c(F)c2)C(=O)O1 [Compound 65, N-[[(5S)-3-[4-[2,6-dihydro-2-(2-hydroxyethyl)pyrrolo[3,4-c]pyrazol-5(4H)-yl]-3-fluorophenyl]-2-oxo-5-oxazolidinyl]methyl]acetamide]"
5,208 to 212 °C (dec.),"O=C1O[C@@H](CO)CN1c1ccc(N2Cc3cccnc3C2)c(F)c1 [Compound 2, (5R)-3-[4-(5,7-Dihydro-6H-pyrrolo[3,4-b]pyridin-6-yl)-3-fluorophenyl]-5-(hydroxymethyl)-2-oxazolidinone]"
6,110 to 112 °C,CCC(=O)NC[C@H]1CN(c2ccc(N3Cc4cccnc4C3)c(F)c2)C(=O)O1 [Compound 13]
7,164 to 166 °C,CC(=O)NC[C@H]1CN(c2ccc(-n3cc4cncnc4c3)c(F)c2)C(=O)O1 [Compound 37]
8,219 to 225 °C (dec.),"CC(=O)NC[C@H]1CN(c2ccc(-n3cc4cc[n+]([O-])cc4c3)c(F)c2)C(=O)O1 [Compound 27, N-[[(5S)-3-[3-Fluoro-4-(5-oxido-2H-pyrrolo[3,4-c]pyridin-2-yl)phenyl]-2-oxo-5-oxazolidinyl]methyl]acetamide]"
9,259 to 261 °C (dec.),CC(=O)NC[C@H]1CN(c2ccc(N3Cc4cn(-c5ccccn5)nc4C3)c(F)c2)C(=O)O1 [Compound 51]
10,220 to 225 °C (dec.),CC(=O)NC[C@H]1CN(c2ccc(-n3cc4cccnc4c3)c(F)c2)C(=O)O1 [Compound 4]
11,234 to 236 °C,"CC(=O)NC[C@H]1CN(c2ccc(N3Cc4cnn(CC5CC5)c4C3)c(F)c2)C(=O)O1 (single isomer, unassigned) [Compound 73]"
12,204 to 207 °C,CS/C(=N\C#N)NC[C@H]1CN(c2ccc(N3Cc4cccnc4C3)c(F)c2)C(=O)O1 [Compound 22]
13,172 to 176 °C,CS(=O)(=O)NC[C@H]1CN(c2ccc(N3Cc4cccnc4C3)c(F)c2)C(=O)O1 [Compound 20]
14,163 to 165 °C,CC(=O)NC[C@H]1CN(c2ccc(N3Cc4cnn(CCO)c4C3)c(F)c2)C(=O)O1 [Compound 53]
15,185 to 188 °C,O=C1O[C@@H](COc2cnsn2)CN1c1ccc(-n2cc3cccnc3c2)c(F)c1 [Compound 12]
16,188 to 191 °C,CC(=O)NC[C@H]1CN(c2ccc(N3Cc4cn(C[C@H](O)CO)nc4C3)c(F)c2)C(=O)O1 [Compound 66]
17,171 to 173 °C,CC(=O)NC[C@H]1CN(c2ccc(N3Cc4cn(CCCO)nc4C3)c(F)c2)C(=O)O1 [Compound 68]
18,182 to 185 °C,O=C1O[C@@H](COc2ccon2)CN1c1ccc(N2Cc3cccnc3C2)c(F)c1 [Compound 7]
19,234 °C (dec.),CC(=O)NC[C@H]1CN(c2ccc(N3Cc4cnc(C)nc4C3)c(F)c2)C(=O)O1 [Compound 35]
20,219 to 225 °C (dec.),CC(=O)NC[C@H]1CN(c2ccc(-n3cc4ccncc4c3)c(F)c2)C(=O)O1 [Compound 28]
21,181 to 185 °C (dec.),CC(=O)NC[C@@H]1CN(c2ccc(-n3cc4cccnc4c3)c(F)c2)C(=O)O1 [Compound 6]

row,melting point,Structure (SMILES)
1,211 to 213 °C,CC(=O)NC[C@H]1CN(c2ccc(N3Cc4cnn(C)c4C3)c(F)c2)C(=O)O1 [Compound 50]
2,216 to 220 °C,CC(=O)NC[C@H]1CN(c2ccc(N3Cc4cnc(-c5ccccn5)nc4C3)c(F)c2)C(=O)O1 [Compound 42]
3,204 to 208 °C,CCCn1ncc2c1CN(c1ccc(N3C[C@H](CNC(C)=O)OC3=O)cc1F)C2 [Compound 45]
4,202 to 206 °C,N/C(=N\[N+](=O)[O-])NC[C@H]1CN(c2ccc(N3Cc4cccnc4C3)c(F)c2)C(=O)O1 [Compound 24]
5,184 to 188 °C,CC(=O)NC[C@H]1CN(c2ccc(N3Cc4cn(C[C@@H](O)CO)nc4C3)c(F)c2)C(=O)O1 [Compound 69]
6,230 to 232 °C,CC(=O)NC[C@H]1CN(c2ccc(N3Cc4cccnc4C3=O)c(F)c2)C(=O)O1 [Compound 48]
7,211 to 214 °C,"CC(=O)NC[C@H]1CN(c2ccc(N3Cc4ccccc4C3=O)c(F)c2)C(=O)O1 [Compound 46, N-[[(5S)-3-[4-(1,3-dihydro-1-oxo-2H-isoindol-2-yl)-3-fluorophenyl]-2-oxo-5-oxazolidinyl]methyl]acetamide]"
8,185 to 187 °C,O=C1O[C@@H](COc2cnsn2)CN1c1ccc(N2Cc3cccnc3C2)c(F)c1 [Compound 11]
9,230 to 232 °C,CC(=O)NC[C@H]1CN(c2ccc(N3Cc4cncnc4C3)c(F)c2)C(=O)O1 [Compound 36]
10,225 to 230 °C,O=C1O[C@@H](COc2cnccn2)CN1c1ccc(N2Cc3cccnc3C2)c(F)c1 [Compound 9]
11,170 to 172 °C,CC(=O)NC[C@H]1CN(c2ccc(N3Cc4cn(CC(F)(F)F)nc4C3)c(F)c2)C(=O)O1 [Compound 70]
12,246 to 249 °C,CNC(=S)n1cc2c(n1)CN(c1ccc(N3C[C@H](CNC(C)=O)OC3=O)cc1F)C2 [Compound 87]
13,192 to 194 °C,O=C1O[C@@H](COc2cnccn2)CN1c1ccc(-n2cc3cccnc3c2)c(F)c1 [Compound 10]
14,235 to 240 °C,O=C(NC[C@H]1CN(c2ccc(N3Cc4cccnc4C3)c(F)c2)C(=O)O1)C1CC1 [Compound 15]
15,133 to 135 °C,O=C1O[C@@H](COc2ccon2)CN1c1ccc(-n2cc3cccnc3c2)c(F)c1 [Compound 8]
16,175 to 180 °C (dec.),[N-]=[N+]=NC[C@H]1CN(c2ccc(N3Cc4cccnc4C3)c(F)c2)C(=O)O1 [Example 7]
17,245 to 250 °C (dec.),CC(=O)NC[C@H]1CN(c2ccc(N3Cc4cnc(-c5ccncc5)nc4C3)c(F)c2)C(=O)O1 [Compound 41]
18,155 to 157 °C,CC(=O)NC[C@H]1CN(c2ccc(N3Cc4cnn(C(C)(C)C)c4C3)c(F)c2)C(=O)O1 [Compound 52]
19,240 to 242 °C,CC(=O)NC[C@H]1CN(c2ccc(N3C(=O)c4ccccc4C3=O)c(F)c2)C(=O)O1 [Compound 47]
20,207 to 209 °C,CC(=O)NC[C@H]1CN(c2ccc(N3Cc4ncccc4C3=O)c(F)c2)C(=O)O1 [Compound 49]
21,212 to 214 °C,CC(=O)NC[C@H]1CN(c2ccc(N3Cc4cnc(-c5cnccn5)nc4C3)c(F)c2)C(=O)O1 [Compound 38]
